Measurements reported in patent US20260102359A1, “COMBINATION TREATMENT OF DERMAL AND TRANSDERMAL FIBROTIC DISEASES, DISORDERS AND ASSOCIATED PAIN AND INFLAMMATION” (ERESINA, LLC, priority 2022, published 2026).
Where a name gives a salt, the structure may show the parent alone.

Each molecule was assayed on hDMFa myofibroblast cells.

| Structure (SMILES) | Compound Myofibroblast Cytotoxicity Activity |
| --- | --- |
| O=C(Nc1ccc([N+](=O)[O-])cc1Cl)c1cc(Cl)ccc1O [Cmpd 708, Niclosamide] | ++ |
| O=C(N/N=C/c1ccc([N+](=O)[O-])o1)c1ccc(O)cc1 [Cmpd 711, Nifuroxazide] | ++ |
| Cc1cn(-c2cc(NC(=O)c3ccc(C)c(Nc4nccc(-c5cccnc5)n4)c3)cc(C(F)(F)F)c2)cn1 [Cmpd 712, Nilotinib monohydrochloride monohydrate] | +++ |
| CC1(C)NC(=O)N(c2ccc([N+](=O)[O-])c(C(F)(F)F)c2)C1=O [Cmpd 714, Nilutamide] | ++++ |
| COC(=O)C1=C(C#N)NC(C)=C(C(=O)OC(C)C)C1c1cccc([N+](=O)[O-])c1 (centres unmarked) [Cmpd 715, Nilvadipine] | +++ |
| COC(=O)c1ccc2c(c1)NC(=O)/C2=C(\Nc1ccc(N(C)C(=O)CN2CCN(C)CC2)cc1)c1ccccc1 [Cmpd 716, Nintedanib (BIBF 1120)] | ++++ |
| COC(=O)C1=C(C)NC(C)=C(C(=O)OCC(C)C)C1c1ccccc1[N+](=O)[O-] (centres unmarked) [Cmpd 717, Nisoldipine] | +++ |
| CC(=O)Oc1ccccc1C(=O)Nc1ncc([N+](=O)[O-])s1 [Cmpd 718, Nitazoxanide] | +++ |
| CCOC(=O)C1=C(C)NC(C)=C(C(=O)OC)C1c1cccc([N+](=O)[O-])c1 (centres unmarked) [Cmpd 719, Nitrendipine] | +++ |
| O=C1CN(/N=C/c2ccc([N+](=O)[O-])o2)C(=O)N1 [Cmpd 720, Nitrofurantoin] | ++++ |
| CC(Cc1ccc(O)c(O)c1)C(C)Cc1ccc(O)c(O)c1 (centres unmarked) [Cmpd 722, Nordihydroguaiaretic acid] | +++ |
| CNCCC=C1c2ccccc2CCc2ccccc21 [Cmpd 723, Nortriptyline (hydrochloride)] | ++ |
| CO[C@@H]1[C@@H](OC(N)=O)[C@@H](O)[C@H](Oc2ccc3c(O)c(NC(=O)c4ccc(O)c(CC=C(C)C)c4)c(=O)oc3c2C)OC1(C)C [Cmpd 724, Novobiocin Sodium] | ++++ |
| CCCCCCCC(=O)O [Cmpd 729, Octanoic acid] | ++ |
| CCCCCCCC/C=C\CCCCCCCC(=O)O [Cmpd 733, Oleic Acid] | +++ |
| C=CC(=O)Nc1cccc(Oc2nc(Nc3ccc(N4CCN(C)CC4)cc3)nc3ccsc23)c1 [Cmpd 735, Olmutinib (HM61713, BI1482694)] | ++++ |
| COc1ccc2[n-]c([S+]([O-])Cc3ncc(C)c(OC)c3C)nc2c1.[Na+] (centres unmarked) [Cmpd 737, Omeprazole Sodium] | ++ |
| CCCCCCCCOc1ccccc1C(=O)Nc1ccc(C(=O)OCC[N+](C)(CC)CC)cc1 [Cmpd 741, Otilonium Bromide] | +++++ |
| Cc1ccccc1C(=O)O [Cmpd 742, o-Toluic acid] | ++ |
| CN(C(=O)CN(CCO)CC(=O)N(C)C(C)(C)Cc1ccccc1)C(C)(C)Cc1ccccc1 [Cmpd 745, Oxethazaine] | +++++ |
| CCN(CC)CC#CCOC(=O)C(O)(c1ccccc1)C1CCCCC1 (centres unmarked) [Cmpd 747, Oxybutynin] | ++ |
| C1=N/C2=N/c3ccc(OCCN4CCCC4)c(c3)COC/C=C/COCc3cccc(c3)C(=C1)N2 [Cmpd 751, Pacritinib (SB1518)] | +++ |

| Structure (SMILES) | Compound Myofibroblast Cytotoxicity Activity |
| --- | --- |
| CC(=O)c1c(C)c2cnc(Nc3ccc(N4CCNCC4)cn3)nc2n(C2CCCC2)c1=O.O=S(=O)(O)CCO [Cmpd 753, Palbociclib (PD0332991) Isethionate] | +++++ |
| CCCCCCCCCCCCCCCC(=O)OC [Cmpd 754] | +++ |
| NCCC(O)(P(=O)([O-])O)P(=O)([O-])O.[Na+].[Na+] [Cmpd 756, Pamidronate Disodium] | +++ |
| C#CCN(C)Cc1ccccc1 [Cmpd 757, Pargyline (hydrochloride)] | ++ |
| Fc1ccc([C@@H]2CCNC[C@H]2COc2ccc3c(c2)OCO3)cc1 [Cmpd 758, Paroxetine HCl] | +++ |
| CS(=O)(=O)O.C[C@H]1COc2c(C3(N)CC3)c(F)cc3c(=O)c(C(=O)O)cn1c23 [Cmpd 760, Pazufloxacin mesylate] | +++ |
| Cc1ccc(O)cc1 [Cmpd 762, p-Cresol] | ++ |
| CC(=O)c1c(C)c2cnc(Nc3ccc(N4CCNCC4)cn3)nc2n(C2CCCC2)c1=O.Cl [Cmpd 763, PD 0332991 (Palbociclib) HCl] | ++++ |
| OC1(c2ccc(Cl)c(C(F)(F)F)c2)CCN(CCCC(c2ccc(F)cc2)c2ccc(F)cc2)CC1 [Cmpd 765, Penfluridol] | +++ |
| CC(C)(S)[C@@H](N)C(=O)O [Cmpd 766, Penicillamine] | ++ |
| N=C(N)c1ccc(OCCCCCOc2ccc(C(=N)N)cc2)cc1.O=S(=O)(O)CCO.O=S(=O)(O)CCO [Cmpd 768, Pentamidine isethionate] | +++ |
| CC(=O)CCCCn1c(=O)c2c(ncn2C)n(C)c1=O [Cmpd 769, Pentoxifylline] | ++++ |
| C1CCc2nnnn2CC1 [Cmpd 770, Pentylenetetrazole] | ++++ |
| OCCN1CCN(CCCN2c3ccccc3Sc3ccc(Cl)cc32)CC1 [Cmpd 773, Perphenazine] | +++++ |
| COS(=O)(=O)[O-].C[n+]1c2ccccc2nc2ccccc21 [Cmpd 775, Phenazine methosulfate] | +++++ |
| CC(COc1ccccc1)N(CCCl)Cc1ccccc1.Cl (centres unmarked) [Cmpd 776, Phenoxybenzamine HCl] | ++ |
| O=C1NC(=O)C(c2ccccc2)(c2ccccc2)N1 [Cmpd 778, Phenytoin sodium] | ++ |
| O=C(O)c1ccccc1C(=O)O [Cmpd 781, Phthalic acid] | ++ |
| O=C(O)CCCNC(=O)c1cccnc1 [Cmpd 783, Pikamilone] | ++ |
| CCc1ccc(CCOc2ccc(CC3SC(=O)NC3=O)cc2)nc1 (centres unmarked) [Cmpd 785, Pioglitazone HCl] | +++ |
| O=C([O-])C[C@H](O)C[C@H](O)/C=C/c1c(C2CC2)nc2ccccc2c1-c1ccc(F)cc1.O=C([O-])C[C@H](O)C[C@H](O)/C=C/c1c(C2CC2)nc2ccccc2c1-c1ccc(F)cc1.[Ca+2] [Cmpd 786, Pitavastatin Calcium] | +++ |
| Nc1cccc2c1C(=O)N(C1CCC(=O)NC1=O)C2=O (centres unmarked) [Cmpd 789, Pomalidomide (CC-4047)] | ++ |

| Structure (SMILES) | Compound Myofibroblast Cytotoxicity Activity |
| --- | --- |
| C[n+]1ccccc1/C=N/O [Cmpd 792, Pralidoxime Iodide] | ++ |
| CC(=O)Oc1cc2c(s1)CCN(C(C(=O)C1CC1)c1ccccc1F)C2.Cl (centres unmarked) [Cmpd 794, Prasugrel hydrochloride] | ++ |
| COc1cc(NC(C)CCCN)c2ncccc2c1.O=P(O)(O)O.O=P(O)(O)O (centres unmarked) [Cmpd 796, Primaquine Diphosphate] | +++ |
| CN1CCN(CCCN2c3ccccc3Sc3ccc(Cl)cc32)CC1 [Cmpd 797, Prochlorperazine] | +++++ |
| CC(=O)[C@H]1CC[C@H]2[C@@H]3CCC4=CC(=O)CC[C@]4(C)[C@H]3CC[C@]12C [Cmpd 799, Progesterone] | +++ |
| CCCOc1ccc2c(c1)CC[C@@H]1[C@@H]2CC[C@]2(C)[C@@H](OC)CC[C@@H]12 [Cmpd 800, Promestriene] | ++ |
| CC(CN1c2ccccc2Sc2ccccc21)N(C)C (centres unmarked) [Cmpd 801, Promethazine HCl] | ++ |
| O=C(O)c1ccc(O)c(O)c1 [Cmpd 804, Protocatechuic acid] | ++ |
| CC(O)Cn1cnc2c1c(=O)n(C)c(=O)n2C (centres unmarked) [Cmpd 805, Proxyphylline] | ++ |
| COCCCN1CCC(NC(=O)c2cc(Cl)c(N)c3c2OCC3)CC1 [Cmpd 806, Prucalopride] | +++ |
| Cc1ncc(CO)c(CO)c1O [Cmpd 809, Pyridoxine] | ++ |
| Oc1ccccc1O [Cmpd 810, Pyrocatechol] | ++ |
| N.S=C(S)N1CCCC1 [Cmpd 811, Pyrrolidinedithiocarbamate ammonium] | ++ |
| CC(C)(C)c1cc(NC(=O)Nc2ccc(-c3cn4c(n3)sc3cc(OCCN5CCOCC5)ccc34)cc2)no1 [Cmpd 815, Quizartinib (AC220)] | ++++ |
| COc1cc(Nc2ncc(F)c(Nc3ccc4c(n3)N(COP(=O)([O-])[O-])C(=O)C(C)(C)O4)n2)cc(OC)c1OC.[Na+].[Na+] [Cmpd 816, R788 disodium] | ++ |
| CC(=O)SCC(Cc1ccccc1)C(=O)NCC(=O)OCc1ccccc1 (centres unmarked) [Cmpd 817, Racecadotril] | ++ |
| Cc1cn(-c2cc(NC(=O)c3ccc(C)c(Nc4nccc(-c5cnccn5)n4)c3)cc(C(F)(F)F)c2)cn1 [Cmpd 818, Radotinib(IY-5511)] | ++++ |
| O=C(c1ccc(OCCN2CCCCC2)cc1)c1c(-c2ccc(O)cc2)sc2cc(O)ccc12 [Cmpd 819, Raloxifene HCl] | ++++ |
| CO[C@H]1C[C@@H]2CC[C@@H](C)[C@@](O)(O2)C(=O)C(=O)N2CCCC[C@H]2C(=O)O[C@H]([C@H](C)C[C@@H]2CC[C@@H](O)[C@H](OC)C2)CC(=O)[C@H](C)/C=C(\C)[C@@H](O)[C@@H](OC)C(=O)[C@H](C)C[C@H](C)/C=C/C=C/C=C/1C [Cmpd 820, Rapamycin (Sirolimus)] | ++++ |
| C#CCN[C@@H]1CCc2ccccc21 [Cmpd 821, Rasagiline] | ++ |
| CCOc1cc(CC(=O)N[C@@H](CC(C)C)c2ccccc2N2CCCCC2)ccc1C(=O)O [Cmpd 826, Repaglinide] | +++ |
